Assay results reported in patent US7732449B2, “Inhibitors of cathepsin S” (IRM LLC, priority 2003, dated 2010).
Where two headings read alike, the source gives them in different places.

Assays:
Type in all cases: biochemical
[1] = biological target: Cathepsin S (Homo sapiens, UniProt P25774); experiment: Cathepsin S inhibition, fluorogenic peptide substrate kinetic assay;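 further: cleavage rate of a coumarin-labelled peptide substrate (50 µM) read as fluorescence increase at Ex 380 nm and Em 450 nm, relative to inhibitor-free control reactions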
[2] = biological target: T1, Cathepsin K (Homo sapiens, UniProt P43235); experiment: Cathepsin K inhibition, fluorogenic peptide substrate kinetic assay (selectivity); conditions: ratio of cathepsin K inhibition constant to cathepsin S inhibition constant
T1 sequence (P43235 115-329): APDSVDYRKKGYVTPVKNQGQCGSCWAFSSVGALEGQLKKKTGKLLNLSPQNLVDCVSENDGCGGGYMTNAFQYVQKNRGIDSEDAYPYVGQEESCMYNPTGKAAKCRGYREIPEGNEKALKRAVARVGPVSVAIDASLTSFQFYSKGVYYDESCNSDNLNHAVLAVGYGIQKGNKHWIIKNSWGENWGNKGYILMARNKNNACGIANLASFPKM

[3] = biological target: Cathepsin B (Homo sapiens, UniProt P07858); experiment: Cathepsin B inhibition, fluorogenic peptide substrate kinetic assay (selectivity); conditions: ratio of cathepsin B inhibition constant to cathepsin S inhibition constant;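 further: value is the cathepsin B inhibition constant divided by the cathepsin S one, each from kinetic fluorescence readings (ex 380 nm, em 450 nm) of a 10 µM coumarin peptide substrate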
[4] = biological target: Cathepsin L (Homo sapiens, UniProt P07711); experiment: Cathepsin L inhibition, fluorogenic peptide substrate kinetic assay (selectivity); conditions: ratio of cathepsin L inhibition constant to cathepsin S inhibition constant
[5] = Cathepsin S inhibition constant, pH5.5, 20 minutes preincubation at room temperature, read-out: Ki Cat. S

Cathepsin S, sequence (P25774 115-331, species assumed): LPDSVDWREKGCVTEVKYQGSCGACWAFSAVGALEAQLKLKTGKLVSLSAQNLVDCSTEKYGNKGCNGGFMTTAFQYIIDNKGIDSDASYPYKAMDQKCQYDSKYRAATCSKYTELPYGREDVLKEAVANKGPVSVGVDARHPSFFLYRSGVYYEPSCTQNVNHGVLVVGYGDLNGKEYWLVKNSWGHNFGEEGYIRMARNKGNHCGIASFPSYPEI
Cathepsin L, sequence (P07711 114-333, species assumed): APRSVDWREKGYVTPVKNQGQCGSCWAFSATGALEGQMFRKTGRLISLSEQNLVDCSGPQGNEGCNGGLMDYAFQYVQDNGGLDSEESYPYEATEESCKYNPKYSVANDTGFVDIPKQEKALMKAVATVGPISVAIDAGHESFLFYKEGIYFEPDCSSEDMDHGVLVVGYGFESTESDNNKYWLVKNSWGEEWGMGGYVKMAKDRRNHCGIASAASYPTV

| Ki [1, 5] | Selectivity for Cat. S over Cat. K [2] | Selectivity for Cat. S over Cat. B [3] | Selectivity for Cat. S over Cat. L [4] | Ki [1] | SMILES |
| --- | --- | --- | --- | --- | --- |
| < 100 nM | ++ (++, >100) | +++ (+++, >1000) | + (+, >10) | – | C[C@@H](CNc1ccc(OC(F)(F)F)cc1)NC(=O)[C@@H](CC(=O)N1CCSCC1)CC1CCCCC1 [Example 51, 2-(R)-Cyclohexylmethyl-N-[1-(S)-methyl-2-(4-trifluoromethoxy-phenylamino)-ethyl]-4-oxo-4-thiomorpholin-4-yl-butyramide] |
| 1000 to 10000 nM | + (+, >10) | + (+, >10) | + (+, >10) | – | C[C@@H](CN1c2ccc(F)cc2CC1(C)C)NC(=O)O[C@@H](CC1CCCCC1)C(=O)N1CCSCC1 [Example 96, [2-(5-Fluoro-2,2-dimethyl-2,3-dihydro-indol-1-yl)-1-(S)-methyl-ethyl]-carbamic acid 1-(S)-cyclohexylmethyl-2-oxo-2-thiomorpholin-4-yl-ethyl ester] |
| 100 to 1000 nM | ++ (++, >100) | ++ (++, >100) | ++ (++, >100) | – | COc1ccc(NCCNC(=O)[C@@H](CC(=O)N2CCOCC2)CC2CCCCC2)cc1 [Example 19, (R)-2-Cyclohexylmethyl-N-[2-(4-methoxy-phenylamino)-ethyl]-4-morpholin-4-yl-4-oxo-butyramide] |
| – | + (+, >10) | +++ (+++, >1000) | + (+, >10) | < 100 nM | CC[C@@H](CNc1ccc(OC(F)(F)F)cc1)NC(=O)[C@@H](CC(=O)N1CCOCC1)CC1CCCCC1 [Example 22, 2-(R)-Cyclohexylmethyl-4-morpholin-4-yl-4-oxo-N-{1-(S)-[(4-trifluoromethoxy-phenylamino)-methyl]-propyl}-butyramide] |
| 1000 to 10000 nM | + (+, >10) | + (+, >10) | + (+, >10) | – | C[C@@H](CN1c2ccc(F)cc2CC1(C)C)NC(=O)O[C@@H](CC1CCCCC1)C(=O)N1CCN(S(C)(=O)=O)CC1 [Example 95, [2-(5-Fluoro-2,2-dimethyl-2,3-dihydro-indol-1-yl)-1-(S)-methyl-ethyl]-carbamic acid 1-(S)-cyclohexylmethyl-2-(4-methanesulfonyl-piperazin-1-yl)-2-oxo-ethyl ester] |
| 1000 to 10000 nM | + (+, >10) | + (+, >10) | + (+, >10) | – | CC(=O)NS(=O)(=O)c1ccc(NC[C@H](C)NC(=O)O[C@@H](CC2CCCCC2)C(=O)N2CCOCC2)cc1 [Example 89, [2-(4-Acetylsulfamoyl-phenylamino)-1-(S)-methyl-ethyl]-carbamic acid 1-(S)-cyclohexylmethyl-2-morpholin-4-yl-2-oxo-ethyl ester] |
| < 100 nM | ++ (++, >100) | +++ (+++, >1000) | ++ (++, >100) | – | C[C@@H](CN1CCc2cc(F)ccc21)NC(=O)[C@@H](CC(=O)N1CCOCC1)CC1CCCCC1 [Example 8, 2-(R)-Cyclohexylmethyl-N-[2-(5-fluoro-2,3-dihydro-indol-1-yl)-1-(S)-methyl-ethyl]-4-morpholin-4-yl-4-oxo-butyramide] |
| 100 to 1000 nM | + (+, >10) | ++ (++, >100) | + (+, >10) | – | C[C@@H](CN1CCc2cc(F)ccc21)NC(=O)[C@H](CC1CCCCC1)OC(=O)N1CCOCC1 [Example 12, Morpholine-4-carboxylic acid 2-cyclohexyl-1-(S)-[2-(5-fluoro-2,3-dihydro-indol-1-yl)-1-(S)-methyl-ethylcarbamoyl]-ethyl ester] |
| 1000 to 10000 nM | – | + (+, >10) | + (+, >10) | – | CC(C)[C@@H](CN1CC(C)(C)c2cc(F)ccc21)NC(=O)OC(C(=O)N1CCOCC1)c1ccccc1 (mixture of isomers) [Example 109, [1-(S)-(5-Fluoro-3,3-dimethyl-2,3-dihydro-indol-1-ylmethyl)-2-methyl-propyl]-carbamic acid 2-morpholin-4-yl-2-oxo-1-(R,S)-phenyl-ethyl ester] |

The next lines start with the molecule.

| SMILES | Ki [1, 5] | Selectivity for Cat. S over Cat. K [2] | Selectivity for Cat. S over Cat. B [3] | Selectivity for Cat. S over Cat. L [4] | Ki [1] |
| --- | --- | --- | --- | --- | --- |
| COc1ccc([C@H](CC(=O)N2CCOCC2)C(=O)N[C@H](CNc2ccc(OC(F)(F)F)cc2)C(C)C)cc1 [Example 53, 2-(S)-(4-Methoxy-phenyl)-N-{2-methyl-1-(S)-[(4-trifluoromethoxy-phenylamino)-methyl]-propyl}-4-morpholin-4-yl-4-oxo-butyramide] | – | ++ (++, >100) | ++ (++, >100) | ++ (++, >100) | 100 to 1000 nM |
| C[C@@H](CNc1ccc(OC(F)(F)F)cc1)NC(=O)[C@H](CS(=O)(=O)Cc1ccccc1)NC(=O)N1CCOCC1 [Example 18, Morpholine-4-carboxylic acid {1-(R)-[1-(S)-methyl-2-(4-trifluoromethoxy-phenylamino)-ethylcarbamoyl]-2-phenylmethanesulfonyl-ethyl}-amide] | < 100 nM | +++ (+++, >1000) | ++ (++, >100) | ++ (++, >100) | – |
| Cc1ccc([C@H](CC(=O)N2CCOCC2)C(=O)N[C@H](CNc2ccc(OC(F)(F)F)cc2)C(C)C)cc1 [Example 57, N-{2-Methyl-1-(S)-[(4-trifluoromethoxy-phenylamino)-methyl]-propyl}-4-morpholin-4-yl-4-oxo-2-(S)-p-tolyl-butyramide] | – | ++ (++, >100) | ++ (++, >100) | ++ (++, >100) | 100 to 1000 nM |
| CC(C)[C@@H](CNc1cccc(S(C)(=O)=O)c1)NC(=O)[C@@H](CC(=O)N1CCOCC1)c1ccc(F)cc1 [Example 67, 2-(S)-(4-Fluoro-phenyl)-N-{1-(S)-[(3-methanesulfonyl-phenylamino)-methyl]-2-methyl-propyl}-4-morpholin-4-yl-4-oxo-butyramide] | 1000 to 10000 nM | + (+, >10) | + (+, >10) | + (+, >10) | – |
| O=C(NCCNc1ccc(OC(F)(F)F)cc1)[C@@H](CC(=O)N1CCOCC1)CC1CCCCC1 [Example 13, 2-(R)-Cyclohexylmethyl-4-morpholin-4-yl-4-oxo-N-[2-(4-trifluoromethoxy-phenylamino)-ethyl]-butyramide] | – | ++ (++, >100) | ++ (++, >100) | ++ (++, >100) | 100 to 1000 nM |
| COc1ccc([C@H](CC(=O)N2CCOCC2)C(=O)N[C@@H](C)CNc2ccc(OC(F)(F)F)cc2)cc1 [Example 63, 2-(S)-(4-Methoxy-phenyl)-N-[1-(S)-methyl-2-(4-trifluoromethoxy-phenylamino)-ethyl]-4-morpholin-4-yl-4-oxo-butyramide] | 100 to 1000 nM | ++ (++, >100) | ++ (++, >100) | ++ (++, >100) | – |
| C[C@@H](CNc1ccc(OC(F)(F)F)cc1)NC(=O)[C@@H](CC(=O)N1CCOCC1)c1ccccc1 [Example 61, N-[1-(S)-Methyl-2-(4-trifluoromethoxy-phenylamino)-ethyl]-4-morpholin-4-yl-4-oxo-2-(S)-phenyl-butyramide] | 1000 to 10000 nM | + (+, >10) | + (+, >10) | + (+, >10) | – |
| CCC[C@@H](CNc1ccc(OC(F)(F)F)cc1)NC(=O)[C@@H](CC(=O)N1CCOCC1)CC1CCCCC1 [Example 20, 2-(R)-Cyclohexylmethyl-4-morpholin-4-yl-4-oxo-N-{1-(S)-[(4-trifluoromethoxy-phenylamino)-methyl]-butyl}-butyramide] | – | + (+, >10) | +++ (+++, >1000) | + (+, >10) | < 100 nM |
| CC(C)[C@@H](CNc1ccc(OC(F)(F)F)cc1)NC(=O)[C@H](CC(=O)N1CCOCC1)c1ccc(Cl)cc1 [Example 43, 2-(R)-(4-Chloro-phenyl)-N-{2-methyl-1-(S)-[(4-trifluoromethoxy-phenylamino)-methyl]-propyl}-4-morpholin-4-yl-4-oxo-butyramide] | – | ++ (++, >100) | ++ (++, >100) | ++ (++, >100) | 100 to 1000 nM |
| CC(C)[C@@H](CNc1ccc(OC(F)(F)F)cc1)NC(=O)[C@H](CCc1ccccc1)CC(=O)N1CCOCC1 [Example 32, N-{2-Methyl-1-(S)-[(4-trifluoromethoxy-phenylamino)-methyl]-propyl}-4-morpholin-4-yl-4-oxo-2-(R)-phenethyl-butyramide] | – | – | +++ (+++, >1000) | + (+, >10) | < 100 nM |
| C=CC[C@H](CC(=O)N1CCOCC1)C(=O)N[C@H](CNc1ccc(OC(F)(F)F)cc1)C(C)C [Example 47, 2-(R)-(2-Morpholin-4-yl-2-oxo-ethyl)-pent-4-enoic acid {2-methyl-1-(S)-[(4-trifluoromethoxy-phenylamino)-methyl]-propyl}-amide] | 100 to 1000 nM | – | + (+, >10) | + (+, >10) | – |
